Experimental data as given in patent US7175829B2, “Contrast-enhanced diagnostic imaging method for monitoring interventional therapies” (Epix Pharmaceuticals, Inc., priority 1997, dated 2007).

Columns and labels:
[1] = target: T1, human serum albumin (HSA) (Homo sapiens, UniProt P02768); experiment: Relaxivity R1 at 20 MHz during thermal denaturation of 4.5% HSA solutions; type: physicochemical; settings: for R1: 20 MHz, 4.5% HSA solution; for R1 / net loss in R1 after denatured samples cooled to physiological temperature / loss in observed R1 during denaturation of the HSA: 0.3 mM Gd-DTPA, 0.1 mM MS-325; for net loss in R1 after denatured samples cooled to physiological temperature: denatured samples cooled to 37° C.; for loss in observed R1 during denaturation of the HSA: from immediately before denaturation (56.2° C.) to immediately after denaturation (85° C.)
T1 sequence (P02768 25-609): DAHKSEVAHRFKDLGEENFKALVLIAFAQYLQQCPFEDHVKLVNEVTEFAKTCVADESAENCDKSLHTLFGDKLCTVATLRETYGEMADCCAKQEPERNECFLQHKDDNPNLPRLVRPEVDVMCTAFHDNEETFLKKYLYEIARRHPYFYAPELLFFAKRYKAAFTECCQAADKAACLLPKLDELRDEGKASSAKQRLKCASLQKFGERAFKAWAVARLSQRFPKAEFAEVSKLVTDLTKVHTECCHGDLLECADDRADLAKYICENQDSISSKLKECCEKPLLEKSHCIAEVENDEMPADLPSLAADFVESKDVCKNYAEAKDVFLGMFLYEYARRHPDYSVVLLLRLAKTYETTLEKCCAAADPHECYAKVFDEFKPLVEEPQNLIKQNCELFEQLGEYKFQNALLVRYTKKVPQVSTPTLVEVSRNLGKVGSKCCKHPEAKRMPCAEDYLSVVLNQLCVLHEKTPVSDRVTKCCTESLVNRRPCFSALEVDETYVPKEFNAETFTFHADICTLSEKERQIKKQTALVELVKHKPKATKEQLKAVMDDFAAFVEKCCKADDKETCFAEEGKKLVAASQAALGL
Protocol: (§1) In these examples, the longitudinal relaxivities (R1, mM^−1 sec^−1) were monitored and obtained at 20 MHz by determining the relaxation rate (1/T1) of water protons in phosphate buffered saline (PBS, 150 mM NaCl, 10 mM phosphate, pH=7.4), in PBS solutions containing 4.5 wt % HSA, or in gels containing 4.5 wt % HSA and 1% Agar. The dependence of temperature on relaxivity (R1) was observed by varying the temperature of the samples with a circulating water bath and monitoring sample temperature with a thermocouple.
(§2) The following three samples were prepared in solutions of 4.5% HSA: (1) a control sample without a contrast agent; (2) a comparative sample with Gd-DTPA; and (3) a sample with MS-325. The samples with Gd-DTPA and MS-325 were prepared by adding an aqueous formulation (pH=7) comprising either Gd-DTPA or MS-325 to the 4.5% HSA solution.
The three samples were then used to monitor the thermal denaturation of the 4.5% HSA solutions. […] Each sample was then removed from the NMR and heated at 85° C. for 15 minutes to induce thermal denaturation of the HSA. Subsequently, the sample was returned to the NMR and T1 data was collected at this higher temperature.

[2] = target: T1, human serum albumin (HSA); experiment: T1-weighted MRI at 1.0 Tesla of agar phantoms containing 4.5% HSA during thermal denaturation; type: physicochemical; settings: for % Loss ROI: 1% agar, 4.5% HSA; for % Loss ROI / loss in signal intensity after denaturation and cooling / loss of signal intensity on thermal denaturation: 0.3 mM Gd-DTPA, 0.1 mM MS-325; for loss in signal intensity after denaturation and cooling: denatured phantoms cooled to 37° C.; for loss of signal intensity on thermal denaturation: phantoms heated above 50–60° C.
Protocol: The following samples were prepared in 1% agar gels containing 4.5% HSA: (1) a control sample without a contrast agent; (2) a comparative sample with Gd-DTPA; and (3) a sample with MS-325. The contrast agents were added in an amount sufficient such that the concentration of Gd-DTPA and MS-325 were 0.3 mM Gd-DTPA and 0.1 mM MS-325, respectively. Such agar gels containing 4.5% HSA are referred to as “phantoms”.
Initial T1-weighted MRI scans (FISP-3D, TR=15, TE=4, alpha=30) at 1.0 Tesla of the agar phantoms were then obtained at a temperature of about 25° C.
The phantoms were then heated in a circulating water bath with additional T1-weighted MRI scans obtained over time.

[3] = target: T1, human serum albumin (HSA); experiment: Relaxivity R1 at 20 MHz during ethanol denaturation of 4.5% HSA solutions; type: physicochemical; settings: for decrease/change in observed relaxivity during ethanol ablation: 4.5% HSA solutions, 0.31 mM Gd-DTPA, 0.08 mM MS-325, 37° C.; for R1 0.31 mM Gd-DTPA / R1 0.08 mM MS-325: 4.5% HSA, 37° C.
Protocol: as §1, §2
Absolute ethanol was then titrated to each of the samples. T1 data (and thus R1 data (=1/T1)) was collected at 20 MHz and 37° C. after each addition of ethanol.

[4] = Rat plasma pharmacokinetic experiment (blood retention, AUC-conc.); type: in vivo; settings: two rats, tail vein injection of 0.1 mmol/kg Gd^153-labeled Gd-DTPA
From the text: The incorporation into a contrast agent of this invention of a BHEM results in prolonged blood retention of the agent. […] Blood retention (as measured by AUC-conc) can be evaluated experimentally by administration of a contrast agent to rats, rabbits, or higher mammals. It has been observed that blood half-life extension is greater in rabbits and higher mammals than in rats. In this application, blood half-life data, as measured by AUC-conc., represents experimentation in rats.
For example, the average plasma concentrations observed after tail vein injection of 0.1 mmol/kg of Gd^153-labeled Gd-DTPA in two rats is shown in FIG. 1.

[5] = tested on: alpha 1-acid glycoprotein (AAG); settings: binding to alpha 1-acid glycoprotein; cited from earlier work
[6] = 85.0 °C, after heating at 85° C. for 15 minutes (HSA denatured)
[7] = 120 min, 35.5 °C (cooled after denaturation), 1.0 Tesla

O=C([O-])CN(CCN(CC(=O)[O-])CC(=O)O)CCN(CC(=O)[O-])CC(=O)O.[Gd+3] [Gd-DTPA, reference compound]
R1 ([1]; 7.3 °C): 9.4556 mM⁻¹ s⁻¹ | R1 ([1]; 11.7 °C): 8.8125 mM⁻¹ s⁻¹ | R1 ([1]; 16.2 °C): 8.0690 mM⁻¹ s⁻¹ | R1 ([1]; 20.6 °C): 7.4182 mM⁻¹ s⁻¹ | R1 ([1]; 25.0 °C): 6.7426 mM⁻¹ s⁻¹ | R1 ([1]; 29.5 °C): 6.2117 mM⁻¹ s⁻¹ | R1 ([1]; 33.9 °C): 5.7089 mM⁻¹ s⁻¹ | R1 ([1]; 38.4 °C): 5.2984 mM⁻¹ s⁻¹ | R1 ([1]; 42.8 °C): 4.8917 mM⁻¹ s⁻¹ | R1 ([1]; 47.3 °C): 4.5992 mM⁻¹ s⁻¹ | R1 ([1]; 51.7 °C): 4.3083 mM⁻¹ s⁻¹ | R1 ([1]; 56.2 °C): 4.0592 mM⁻¹ s⁻¹ | R1 ([1]; 60.6 °C): 3.8806 mM⁻¹ s⁻¹ | R1 [1, 6]: 4.2102 mM⁻¹ s⁻¹ | net loss in R1 after denatured samples cooled to physiological temperature [1]: 0.5 mM^−1 sec^−1 | loss in observed R1 during denaturation of the HSA [1]: 0.1 mM⁻¹ s⁻¹ | binding to native or denatured HSA ([1]; inferred from R1 change during thermal denaturation): does not bind to either native or denatured HSA | % Loss ROI ([2]; 0 min, 25.3 °C, 1.0 Tesla): −0.2456% | % Loss ROI ([2]; 10 min, 29.6 °C, 1.0 Tesla): −5.1875% | % Loss ROI ([2]; 20 min, 38.3 °C, 1.0 Tesla): −12.806% | % Loss ROI ([2]; 30 min, 45.0 °C, 1.0 Tesla): −18.985% | % Loss ROI ([2]; 40 min, 53.0 °C, 1.0 Tesla): −30.964% | % Loss ROI ([2]; 50 min, 64.7 °C, 1.0 Tesla): −43.833% | % Loss ROI ([2]; 60 min, 72.8 °C, 1.0 Tesla): −46.086% | % Loss ROI ([2]; 70 min, 87.1 °C, 1.0 Tesla): −47.529% | % Loss ROI [2, 7]: −10.190% | loss in signal intensity after denaturation and cooling [2]: 10% | loss of signal intensity on thermal denaturation [2]: only a modest change | decrease/change in observed relaxivity during ethanol ablation [3]: 0.3 mM⁻¹ s⁻¹ | R1 0.31 mM Gd-DTPA ([3]; ethanol 0.0 %): 4.1737 mM⁻¹ s⁻¹ | R1 0.31 mM Gd-DTPA ([3]; ethanol 16.1 %): 4.7191 mM⁻¹ s⁻¹ | R1 0.31 mM Gd-DTPA ([3]; ethanol 27.8 %): 5.0021 mM⁻¹ s⁻¹ | R1 0.31 mM Gd-DTPA ([3]; ethanol 36.6 %): 4.9347 mM⁻¹ s⁻¹ | R1 0.31 mM Gd-DTPA ([3]; ethanol 43.5 %): 4.7997 mM⁻¹ s⁻¹ | R1 0.31 mM Gd-DTPA ([3]; ethanol 49.0 %): 4.4623 mM⁻¹ s⁻¹ | AUC-conc. from 0 to 10 minutes [4]: 3.5 mM·min

O=C(O)CN(CCN(CC(=O)O)CC(COP(=O)(O)OC1CCC(c2ccccc2)(c2ccccc2)CC1)N(CC(=O)O)CC(=O)O)CC(=O)O (stereo not drawn) [MS-325]
R1 ([1]; 7.3 °C): 31.2 mM⁻¹ s⁻¹ | R1 ([1]; 11.7 °C): 33.4 mM⁻¹ s⁻¹ | R1 ([1]; 16.2 °C): 36.0 mM⁻¹ s⁻¹ | R1 ([1]; 20.6 °C): 38.6 mM⁻¹ s⁻¹ | R1 ([1]; 25.0 °C): 40.6 mM⁻¹ s⁻¹ | R1 ([1]; 29.5 °C): 42.0 mM⁻¹ s⁻¹ | R1 ([1]; 33.9 °C): 42.8 mM⁻¹ s⁻¹ | R1 ([1]; 38.4 °C): 42.4 mM⁻¹ s⁻¹ | R1 ([1]; 42.8 °C): 42.3 mM⁻¹ s⁻¹ | R1 ([1]; 47.3 °C): 41.3 mM⁻¹ s⁻¹ | R1 ([1]; 51.7 °C): 39.5 mM⁻¹ s⁻¹ | R1 ([1]; 56.2 °C): 37.5 mM⁻¹ s⁻¹ | R1 ([1]; 60.6 °C): 33.3 mM⁻¹ s⁻¹ | R1 [1, 6]: 10.8 mM⁻¹ s⁻¹ | net loss in R1 after denatured samples cooled to physiological temperature [1]: 25 mM^−1 sec^−1 | loss in observed R1 during denaturation of the HSA [1]: 26.7 mM⁻¹ s⁻¹ | % Loss ROI ([2]; 0 min, 25.3 °C, 1.0 Tesla): 0.0000% | % Loss ROI ([2]; 10 min, 29.6 °C, 1.0 Tesla): −4.4755% | % Loss ROI ([2]; 20 min, 38.3 °C, 1.0 Tesla): −6.4144% | % Loss ROI ([2]; 30 min, 45.0 °C, 1.0 Tesla): −11.241% | % Loss ROI ([2]; 40 min, 53.0 °C, 1.0 Tesla): −26.153% | % Loss ROI ([2]; 50 min, 64.7 °C, 1.0 Tesla): −49.262% | % Loss ROI ([2]; 60 min, 72.8 °C, 1.0 Tesla): −69.499% | % Loss ROI ([2]; 70 min, 87.1 °C, 1.0 Tesla): −76.469% | % Loss ROI [2, 7]: −31.869% | brightness of phantoms in initial T1-weighted MRI scans ([2]; about 25° C., 1.0 Tesla, versus phantoms with Gd-DTPA or 4.5% HSA alone): brighter | loss in signal intensity after denaturation and cooling [2]: 32% | loss of signal intensity on thermal denaturation [2]: 76% | decrease/change in observed relaxivity during ethanol ablation [3]: 33 mM⁻¹ s⁻¹ | R1 0.08 mM MS-325 ([3]; ethanol 0.0 %): 42.216 mM⁻¹ s⁻¹ | R1 0.08 mM MS-325 ([3]; ethanol 0.9 %): 40.848 mM⁻¹ s⁻¹ | R1 0.08 mM MS-325 ([3]; ethanol 1.9 %): 39.541 mM⁻¹ s⁻¹ | R1 0.08 mM MS-325 ([3]; ethanol 2.8 %): 38.423 mM⁻¹ s⁻¹ | R1 0.08 mM MS-325 ([3]; ethanol 3.7 %): 37.064 mM⁻¹ s⁻¹ | R1 0.08 mM MS-325 ([3]; ethanol 4.5 %): 36.375 mM⁻¹ s⁻¹ | R1 0.08 mM MS-325 ([3]; ethanol 5.4 %): 35.234 mM⁻¹ s⁻¹ | R1 0.08 mM MS-325 ([3]; ethanol 6.2 %): 34.576 mM⁻¹ s⁻¹ | R1 0.08 mM MS-325 ([3]; ethanol 7.1 %): 33.895 mM⁻¹ s⁻¹ | R1 0.08 mM MS-325 ([3]; ethanol 7.9 %): 33.099 mM⁻¹ s⁻¹ | R1 0.08 mM MS-325 ([3]; ethanol 8.7 %): 32.224 mM⁻¹ s⁻¹ | R1 0.08 mM MS-325 ([3]; ethanol 10.2 %): 31.689 mM⁻¹ s⁻¹ | R1 0.08 mM MS-325 ([3]; ethanol 11.7 %): 30.403 mM⁻¹ s⁻¹ | R1 0.08 mM MS-325 ([3]; ethanol 16.4 %): 26.939 mM⁻¹ s⁻¹ | R1 0.08 mM MS-325 ([3]; ethanol 22.8 %): 21.456 mM⁻¹ s⁻¹ | R1 0.08 mM MS-325 ([3]; ethanol 28.3 %): 17.428 mM⁻¹ s⁻¹ | R1 0.08 mM MS-325 ([3]; ethanol 33.1 %): 14.082 mM⁻¹ s⁻¹ | R1 0.08 mM MS-325 ([3]; ethanol 37.3 %): 11.187 mM⁻¹ s⁻¹ | R1 0.08 mM MS-325 ([3]; ethanol 41.0 %): 9.6943 mM⁻¹ s⁻¹ | R1 0.08 mM MS-325 ([3]; ethanol 44.2 %): 8.9506 mM⁻¹ s⁻¹ | R1 0.08 mM MS-325 ([3]; ethanol 47.2 %): 8.7970 mM⁻¹ s⁻¹

CN(C)CCCN1c2ccccc2Sc2ccc(Cl)cc21 [chloropromazine]
Ka [5]: 35.4×10^5
